How the values were obtained:
human σ1 receptor = molecular target: T1, human σ1 receptor (Homo sapiens, UniProt Q99720); assay: Human σ1 receptor radioligand assay; details: transfected HEK-293 membranes, 5 nM [3H](+)-pentazocine, 37° C. 120 minutes; + may also stand for 1-50% inhibition at 1 or 10 μM; read-out: Binding σ-1 Ki
T1 construct: expressed in transfected cells; host or cells: HEK-293
Method: Human σ1 Receptor Radioligand Assay
Transfected HEK-293 membranes (7 μg) were incubated with 5 nM of [^3H](+)-pentazocine in assay buffer containing Tris-HCl 50 mM at pH 8. NBS (non-specific binding) was measured by adding 10 μM haloperidol. The binding of the test compound was measured at either one concentration (% inhibition at 1 or 10 μM) or five different concentrations to determine affinity values (Ki). Plates were incubated at 37° C. for 120 minutes. After the incubation period, the reaction mix was then transferred to MultiScreen HTS, FC plates (Millipore), filtered and plates were washed 3 times with ice-cold 10 mM Tris-HCL (pH7.4). Filters were dried and counted at approximately 40% efficiency in a MicroBeta scintillation counter (Perkin-Elmer) using EcoScint liquid scintillation cocktail.

human σ2/TMEM97 receptor = molecular target: T2, human σ2/TMEM97 receptor (Homo sapiens, UniProt Q5BJF2); assay: Binding assay to human σ2/TMEM97 receptor; details: transfected HEK-293 membranes, 10 nM [3H]-DTG, 25° C. 120 minutes; + may also stand for 1-50% inhibition at 1 or 10 μM; read-out: Binding σ-2 Ki
T2 construct: expressed in transfected cells; host or cells: HEK-293
T2 sequence (Q5BJF2 whole entry): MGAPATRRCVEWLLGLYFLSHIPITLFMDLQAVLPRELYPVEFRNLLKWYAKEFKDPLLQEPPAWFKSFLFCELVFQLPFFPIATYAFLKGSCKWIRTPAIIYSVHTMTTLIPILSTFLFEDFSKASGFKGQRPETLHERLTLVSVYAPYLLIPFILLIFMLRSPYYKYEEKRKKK
Method: Binding Assay to Human σ2/TMEM97 Receptor
Transfected HEK-293 membranes (15 μg) were incubated with 10 nM [^3H]-1,3-Di-o-tolylguanidine (DTG) in assay buffer containing Tris-HCl 50 mM at pH 8.0. NSB (non-specific binding) was measured by adding 10 μM haloperidol. The binding of the test compound was measured at either one concentration (% inhibition at 1 or 10 μM) or five different concentrations to determine affinity values (Ki). Plates were incubated at 25° C. for 120 minutes. After the incubation period, the reaction mix was transferred to MultiScreen HTS, FC plates (Millipore), filtered and washed 3 times with ice-cold 10 mM Tris-HCL (pH 8.0). Filters were dried and counted at approximately 40% efficiency in a MicroBeta scintillation counter (Perkin-Elmer) using EcoScint liquid scintillation cocktail.

T1 sequence (Q99720 whole entry): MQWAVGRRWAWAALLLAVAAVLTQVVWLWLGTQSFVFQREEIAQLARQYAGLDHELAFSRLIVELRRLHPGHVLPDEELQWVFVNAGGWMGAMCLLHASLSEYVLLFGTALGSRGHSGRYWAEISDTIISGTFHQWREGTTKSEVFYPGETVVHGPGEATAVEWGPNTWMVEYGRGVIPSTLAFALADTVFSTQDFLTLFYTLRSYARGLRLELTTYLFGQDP

SMILES | Ki (human σ1 receptor) | Ki (human σ2/TMEM97 receptor)
CN(CCc1ccccc1)C1CCN(S(=O)(=O)c2ccc(N3CCOCC3)nc2)CC1 [Example 15, N-Methyl-1-((6-morpholinopyridin-3-yl)sulfonyl)-N-phenethylpiperidin-4-amine] | > 1000 nM | 100 to 500 nM
CN(Cc1ccccc1)C1CCN(S(=O)(=O)c2ccc(N3CCOCC3)nc2)CC1 [Example 16, N-Benzyl-N-methyl-1-((6-morpholinopyridin-3-yl)sulfonyl)piperidin-4-amine] | > 1000 nM | 100 to 500 nM
CN(Cc1ccccc1)[C@H]1CCN(S(=O)(=O)c2ccc(N3CCOCC3)nc2)C1 [Example 17, (S)-N-Benzyl-N-methyl-1-((6-morpholinopyridin-3-yl)sulfonyl)pyrrolidin-3-amine] | < 100 nM | > 1000 nM
CN(Cc1ccccc1)[C@H]1CC[C@H](NS(=O)(=O)c2ccc(N3CCOCC3)nc2)CC1 [Example 18, N-((1r,4r)-4-(Benzyl(methyl)amino)cyclohexyl)-6-morpholinopyridine-3-sulfonamide] | > 1000 nM | < 100 nM
CN(Cc1ccccc1)[C@H]1CC[C@@H](NS(=O)(=O)c2ccc(N3CCOCC3)nc2)CC1 [Example 19, N-((1s,4s)-4-(Benzyl(methyl)amino)cyclohexyl)-6-morpholinopyridine-3-sulfonamide] | > 1000 nM | < 100 nM
C[C@@H]1CN(c2ccc(S(=O)(=O)N[C@H]3CCN(Cc4ccccc4)C3)cn2)C[C@H](C)O1 [Example 20, N—((S)-1-Benzylpyrrolidin-3-yl)-6-((2R,6S)-2,6-dimethylmorpholino)pyridine-3-sulfonamide] | < 100 nM | > 1000 nM
CN(C)c1ccc(S(=O)(=O)N[C@H]2CCN(Cc3ccccc3)C2)cn1 [Example 21, (S)-N-(1-Benzylpyrrolidin-3-yl)-6-(dimethylamino) pyridine-3-sulfonamide] | < 100 nM | > 1000 nM
CN(C)c1ccc(S(=O)(=O)N[C@@H]2CCN(Cc3ccccc3)C2)cn1 [Example 22, (R)-N-(1-Benzylpyrrolidin-3-yl)-6-(dimethylamino) pyridine-3-sulfonamide] | < 100 nM | > 1000 nM
O=S(=O)(N[C@@H]1CCN(Cc2ccccc2)C1)c1ccc(N2C[C@@H]3C[C@H]2CO3)nc1 [Example 23, N-((R)-1-Benzylpyrrolidin-3-yl)-6-((1S,4S)-2-oxa-5-azabicyclo[2.2.1]heptan-5-yl)pyridine-3-sulfonamide] | < 100 nM | > 1000 nM
O=S(=O)(N[C@@H]1CCN(Cc2ccccc2)C1)c1cnc(N2CCOCC2)c(F)c1 [Example 24, (R)-N-(1-Benzylpyrrolidin-3-yl)-5-fluoro-6-morpholinopyridine-3-sulfonamide] | < 100 nM | 500 to 1000 nM
O=S(=O)(N[C@H]1CCN(Cc2ccccc2)C1)c1cnc(N2CCOCC2)c(F)c1 [Example 25, (S)-N-(1-Benzylpyrrolidin-3-yl)-5-fluoro-6-morpholinopyridine-3-sulfonamide] | < 100 nM | > 1000 nM
COC1CCN(c2ccc(S(=O)(=O)N[C@@H]3CCN(Cc4ccccc4)C3)cn2)CC1 [Example 26, (R)-N-(1-Benzylpyrrolidin-3-yl)-6-(4-methoxypiperidin-1-yl)pyridine-3-sulfonamide] | 500 to 1000 nM | > 1000 nM
CN(Cc1ccc(F)cc1)[C@H]1CC[C@H](NS(=O)(=O)c2ccc(N3CCOCC3)nc2)CC1 [Example 28, N-((1r,4r)-4-((4-Fluorobenzyl)(methyl)amino)cyclohexyl)-6-morpholinopyridine-3-sulfonamide] | > 1000 nM | < 100 nM
CC(C)(C)CCN1CCC2(CC1)CCN(S(=O)(=O)c1ccc(N3CCOCC3)nc1)CC2 [Example 29, 4-(5-((9-(3,3-Dimethylbutyl)-3,9-diazaspiro[5.5]undecan-3-yl)sulfonyl)pyridin-2-yl)morpholine] | 100 to 500 nM | < 100 nM
CN(C)c1ccc(S(=O)(=O)N[C@H]2CC[C@H](N(C)Cc3ccccc3)CC2)cn1 [Example 30, N-((1r,4r)-4-(Benzyl (methyl)amino)cyclohexyl)-6-(dimethylamino) pyridine-3-sulfonamide] | 500 to 1000 nM | 100 to 500 nM
CN(Cc1ccccc1)[C@H]1CC[C@H](NS(=O)(=O)c2ccc(N3CCC4(CCOC4)CC3)nc2)CC1 [Example 31] | < 100 nM | < 100 nM
CN(Cc1ccccc1)[C@H]1CC[C@H](NS(=O)(=O)c2ccc(N3CCCOCC3)nc2)CC1 [Example 32, N-((1r,4r)-4-(Benzyl(methyl)amino)cyclohexyl)-6-(1,4-oxazepan-4-yl) pyridine-3-sulfonamide] | 100 to 500 nM | < 100 nM
COc1ccc(CNC[C@H]2CCCN(S(=O)(=O)c3ccc(N4CCOCC4)nc3)C2)cn1 [Example 33, (R)-1-(6-Methoxypyridin-3-yl)-N-((1-((6-morpholinopyridin-3-yl)sulfonyl)piperidin-3-yl)methyl) methanamine] | > 1000 nM | < 100 nM
COc1ccc(CNC[C@@H]2CCCN(S(=O)(=O)c3ccc(N4CCOCC4)nc3)C2)cn1 [Example 34, (S)-1-(6-Methoxypyridin-3-yl)-N-((1-((6-morpholinopyridin-3-yl)sulfonyl)piperidin-3-yl)methyl) methanamine] | 500 to 1000 nM | < 100 nM
O=S(=O)(N[C@H]1CCN(Cc2cccc(F)c2)C1)c1ccc(N2CCOCC2)nc1 [Example 35, (S)—N-(1-(3-Fluorobenzyl)pyrrolidin-3-yl)-6-morpholinopyridine-3-sulfonamide] | < 100 nM | > 1000 nM
O=S(=O)(N[C@@H]1CCN(Cc2ccc(F)cc2)C1)c1ccc(N2CCOCC2)nc1 [Example 36, (R)-N-(1-(4-Fluorobenzyl)pyrrolidin-3-yl)-6-morpholinopyridine-3-sulfonamide] | < 100 nM | > 1000 nM
N#Cc1ccc(CN2CC[C@@H](NS(=O)(=O)c3ccc(N4CCOCC4)nc3)C2)cc1 [Example 37, (R)-N-(1-(4-Cyanobenzyl)pyrrolidin-3-yl)-6-morpholinopyridine-3-sulfonamide] | < 100 nM | > 1000 nM
O=S(=O)(N[C@@H]1CCN(Cc2cccc(F)c2)C1)c1ccc(N2CCOCC2)nc1 [Example 38, (R)-N-(1-(3-Fluorobenzyl)pyrrolidin-3-yl)-6-morpholinopyridine-3-sulfonamide] | < 100 nM | > 1000 nM
N#Cc1ccc(CN2CC[C@H](NS(=O)(=O)c3ccc(N4CCOCC4)nc3)C2)cc1 [Example 39, (S)-N-(1-(4-Cyanobenzyl)pyrrolidin-3-yl)-6-morpholinopyridine-3-sulfonamide] | < 100 nM | > 1000 nM
N#Cc1cccc(CN2CC[C@@H](NS(=O)(=O)c3ccc(N4CCOCC4)nc3)C2)c1 [Example 40, (R)-N-(1-(3-Cyanobenzyl)pyrrolidin-3-yl)-6-morpholinopyridine-3-sulfonamide] | 100 to 500 nM | > 1000 nM
O=S(=O)(N[C@H]1CCN(Cc2ccc(F)cc2)C1)c1ccc(N2CCOCC2)nc1 [Example 41, (S)-N-(1-(4-Fluorobenzyl)pyrrolidin-3-yl)-6-morpholinopyridine-3-sulfonamide] | < 100 nM | > 1000 nM
N#Cc1cccc(CN2CC[C@H](NS(=O)(=O)c3ccc(N4CCOCC4)nc3)C2)c1 [Example 42, (S)-N-(1-(3-Cyanobenzyl)pyrrolidin-3-yl)-6-morpholinopyridine-3-sulfonamide] | 500 to 1000 nM | > 1000 nM

Reference: patent US20240254115A1 (ACONDICIONAMIENTO TARRASENSE, priority 2021, published 2024)
